# ChEMBL document CHEMBL6087414, “Discovery of 4-(4-(3-(1-(2-(piperidin-1-yl)ethyl)-1H-benzo[d]imidazole-2-yl)isoxazol-5-yl)phenyl)morpholine as a novel c-Myc inhibitor against lung cancer in vitro and in vivo” (Eur J Med Chem, 2025)
# Active and inactive are the calls of the source. The calls are words filed in the database; no cut-off is given here.
# Assays:
# A549 [1] = test: Induction of apoptosis in human A549 cells assessed as activation of caspase-3 cleavage at 2.5 to 10 uM incubated for 48 hrs by Western blot analysis; type: functional, cell-based; conditions: dose 2.5-10 µM
# A549 [2] = test: Cytotoxicity against human A549 cells assessed as inhibition of cell viability incubated for 48 hrs by CCK8 assay; type: functional, cell-based; conditions: A549, 48 h
# [3] = test system: Lewis lung carcinoma cell line; test: Antitumor activity against mouse Lewis lung carcinoma cells allografted in C57BL/6 mouse at 40 mg/kg, ip administered every two days for 28 days relative to control; type: functional; conditions: 672 h, time 28 day, read-out: TGI
# A549 [4] = test: Induction of apoptosis in human A549 cells assessed as increase in BAD level at 2.5 to 10 uM incubated for 48 hrs by Western blot analysis; type: functional, cell-based; conditions: dose 2.5-10 µM
# A549 [5] = test: Induction of apoptosis in human A549 cells assessed as late apoptotic cells at 2.5 uM incubated for 48 hrs by Annexin V-FITC/PI staining based flow cytometry (reference value: 5.79 %); type: functional
# [6] = test system: Lewis lung carcinoma cell line; test: Antitumor activity against mouse Lewis lung carcinoma cells allografted in C57BL/6 mouse at 20 mg/kg, ip administered every two days for 28 days relative to control; type: functional; conditions: 672 h, time 28 day, read-out: TGI
# [7] = Toxicity in C57BL/6 mouse allografted with mouse Lewis lung carcinoma cells assessed as pathological damage in kidneys at 20 mg/kg, ip administered every two days for 28 days by H and E staining based analysis; type: organism-based, Kidney; conditions: in vivo, 672 h, time 28 day
# [8] = target: Myc proto-oncogene protein (Homo sapiens) (UniProt P01106); test: Inhibition of c-Myc in human A549 cells assessed as decrease in half life at 10 uM pretreated for 12 hrs followed by CHX treatment for 1 to 2 hrs by Western blot analysis; type: cell-based; conditions: time 13-14 hrs
# [9] = Toxicity in C57BL/6 mouse allografted with mouse Lewis lung carcinoma cells assessed as discernible signs of toxicity at 20 to 40 mg/kg, ip administered every two days for 28 days; type: organism-based; conditions: in vivo, 672 h, dose 20-40 mg/kg, time 28 day
# [10] = target: Myc proto-oncogene protein (Homo sapiens) (UniProt P01106); test: Inhibition of c-Myc transcriptional activity (unknown origin) at 10 uM by luciferase reporter gene assay
# [11] = Cytotoxicity against human BEAS-2B cells assessed as cell viability upto 20 uM incubated for 48 hrs by CCK8 assay relative to control; type: toxicity, cell-based; conditions: read-out: Activity
# NCI-H1299 = test: Cytotoxicity against human NCI-H1299 cells assessed as inhibition of cell viability incubated for 48 hrs by CCK8 assay; type: functional, cell-based; conditions: NCI-H1299, 48 h
# A549 [12] = test: Induction of apoptosis in human A549 cells assessed as viable cells at 10 uM incubated for 48 hrs by Annexin V-FITC/PI staining based flow cytometry (reference value: 87.8 %); type: functional; conditions: read-out: Activity
# [13] = Toxicity in C57BL/6 mouse allografted with mouse Lewis lung carcinoma cells assessed as pathological damage in spleen at 20 mg/kg, ip administered every two days for 28 days by H and E staining based analysis; type: organism-based; conditions: in vivo, 672 h, time 28 day
# A549 [14] = test: Induction of apoptosis in human A549 cells assessed as activation of caspase-9 cleavage at 2.5 to 10 uM incubated for 48 hrs by Western blot analysis; type: functional, cell-based; conditions: dose 2.5-10 µM
# [15] = Toxicity in C57BL/6 mouse allografted with mouse Lewis lung carcinoma cells assessed as pathological damage in liver at 20 mg/kg, ip administered every two days for 28 days by H and E staining based analysis; type: organism-based; conditions: in vivo, 672 h, time 28 day
# A549 [16] = test: Induction of apoptosis in human A549 cells assessed as viable cells at 5 uM incubated for 48 hrs by Annexin V-FITC/PI staining based flow cytometry (reference value: 87.8 %); type: functional; conditions: read-out: Activity
# A549 [17] = test: Induction of apoptosis in human A549 cells assessed as necrotic cells at 10 uM incubated for 48 hrs by Annexin V-FITC/PI staining based flow cytometry (reference value: 1.41 %); type: functional
# A549 [18] = test: Induction of apoptosis in human A549 cells assessed as increase in BAX level at 2.5 to 10 uM incubated for 48 hrs by Western blot analysis; type: functional, cell-based; conditions: dose 2.5-10 µM
# A549 [19] = test: Induction of apoptosis in human A549 cells assessed as viable cells at 2.5 uM incubated for 48 hrs by Annexin V-FITC/PI staining based flow cytometry (reference value: 87.8 %); type: functional; conditions: read-out: Activity
# A549 [20] = test: Induction of apoptosis in human A549 cells assessed as late apoptotic cells at 5 uM incubated for 48 hrs by Annexin V-FITC/PI staining based flow cytometry (reference value: 5.79 %); type: functional
# A549 [21] = test: Induction of apoptosis in human A549 cells assessed as necrotic cells at 2.5 uM incubated for 48 hrs by Annexin V-FITC/PI staining based flow cytometry (reference value: 1.41 %); type: functional
# A549 [22] = test: Induction of apoptosis in human A549 cells assessed as early apoptotic cells at 5 uM incubated for 48 hrs by Annexin V-FITC/PI staining based flow cytometry (reference value: 5.02 %); type: functional
# A549 [23] = test: Induction of apoptosis in human A549 cells at 5 to 15 uM incubated for 48 hrs by Annexin V-FITC/PI staining based flow cytometry relative to control; type: functional; conditions: dose 5-15 µM
# A549 [24] = test: Induction of apoptosis in human A549 cells assessed as necrotic cells at 5 uM incubated for 48 hrs by Annexin V-FITC/PI staining based flow cytometry (reference value: 1.41 %); type: functional
# [25] = target: Myc proto-oncogene protein (Homo sapiens) (UniProt P01106); test: Inhibition of c-Myc in human NCI-H1299 cells by Western blot analysis; type: cell-based; conditions: dose <= 10.0 µM
# A549 [26] = test: Induction of apoptosis in human A549 cells assessed as early apoptotic cells at 2.5 uM incubated for 48 hrs by Annexin V-FITC/PI staining based flow cytometry (reference value: 5.02 %); type: functional
# [27] = Toxicity in C57BL/6 mouse allografted with mouse Lewis lung carcinoma cells assessed as pathological damage in heart at 20 mg/kg, ip administered every two days for 28 days by H and E staining based analysis; type: organism-based; conditions: in vivo, 672 h, time 28 day
# [28] = Toxicity in C57BL/6 mouse allografted with mouse Lewis lung carcinoma cells assessed as body weight loss at 20 to 40 mg/kg, ip administered every two days for 28 days; type: organism-based; conditions: in vivo, 672 h, dose 20-40 mg/kg, time 28 day
# [29] = test system: Lewis lung carcinoma cell line; test: Antitumor activity against mouse Lewis lung carcinoma cells allografted in C57BL/6 mouse assessed as inhibition of tumor growth administered intraperitoneally every two days for 28 days; type: functional, cell-based; conditions: dose 20-40 mg/kg, route ip, time 28.0 day
# [30] = target: Myc proto-oncogene protein (Homo sapiens) (UniProt P01106); test: Inhibition of c-Myc in human A549 cells by Western blot analysis; type: cell-based; conditions: dose <= 10.0 µM
# [31] = target: Myc proto-oncogene protein (Homo sapiens) (UniProt P01106); test: Inhibition of c-Myc in human A549 cells at 10 uM incubated for 24 hrs in presence of MG132 by Western blot analysis; type: cell-based
# A549 [32] = test: Induction of apoptosis in human A549 cells incubated for 48 hrs by Annexin V-FITC/PI staining based flow cytometry; type: functional, cell-based; conditions: dose 5-15 µM
# [33] = target: c-Myc/c-Max (Homo sapiens) (UniProt P01106+P61244); test: Disruption of c-Myc-Max interaction in human A549 cells assessed as decrease in at 10 uM incubated for 48 hrs by immunoprecipitation method; type: cell-based
# A549 [34] = test: Effect on c-Myc mRNA expression in human A549 cells at 10 uM by Q-PCR analysis; type: functional, cell-based
# A549 [35] = test: Induction of apoptosis in human A549 cells assessed as early apoptotic cells at 10 uM incubated for 48 hrs by Annexin V-FITC/PI staining based flow cytometry (reference value: 5.02 %); type: functional
# A549 [36] = test: Induction of apoptosis in human A549 cells assessed as decrease in Bcl-2 level at 2.5 to 10 uM incubated for 48 hrs by Western blot analysis; type: functional, cell-based; conditions: dose 2.5-10 µM
# Lewis lung carcinoma = test: In vivo inhibition of c-Myc in mouse Lewis lung carcinoma cells allografted in C57BL/6 mouse at 20 to 40 mg/kg, ip administered every two days for 28 days by Western blot analysis; type: functional, organism-based; conditions: dose 20-40 mg/kg, time 28.0 day
# A549 [37] = test: Induction of apoptosis in human A549 cells assessed as late apoptotic cells at 10 uM incubated for 48 hrs by Annexin V-FITC/PI staining based flow cytometry (reference value: 5.79 %); type: functional
# Chain of Myc proto-oncogene protein (Homo sapiens) (P01106 whole entry): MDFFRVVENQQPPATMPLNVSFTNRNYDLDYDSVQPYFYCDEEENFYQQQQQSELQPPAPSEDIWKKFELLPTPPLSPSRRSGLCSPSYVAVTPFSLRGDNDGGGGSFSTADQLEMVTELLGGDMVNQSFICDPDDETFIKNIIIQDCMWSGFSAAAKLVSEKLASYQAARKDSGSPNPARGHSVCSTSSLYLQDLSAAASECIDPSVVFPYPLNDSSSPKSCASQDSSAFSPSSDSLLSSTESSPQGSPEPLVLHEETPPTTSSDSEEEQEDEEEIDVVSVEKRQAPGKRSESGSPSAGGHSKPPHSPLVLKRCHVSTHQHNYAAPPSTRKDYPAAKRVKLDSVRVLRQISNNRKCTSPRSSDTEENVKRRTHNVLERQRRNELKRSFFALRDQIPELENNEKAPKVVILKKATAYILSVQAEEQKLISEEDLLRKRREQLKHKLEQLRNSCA
# Chain of c-Myc/c-Max (Homo sapiens) (P01106 whole entry): as above
# Chain of c-Myc/c-Max (Homo sapiens) (P61244 2-160 partner limits assumed): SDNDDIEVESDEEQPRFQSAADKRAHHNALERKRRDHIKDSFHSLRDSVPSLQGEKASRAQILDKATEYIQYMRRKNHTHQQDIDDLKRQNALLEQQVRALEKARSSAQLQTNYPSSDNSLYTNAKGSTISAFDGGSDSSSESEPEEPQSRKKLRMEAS
structure (smiles),measurement,setting,value
c1ccc2c(c1)nc(-c1cc(-c3ccc(N4CCOCC4)cc3)on1)n2CCN1CCCCC1,Activity,A549 [1],Active
same,IC50,A549 [2],4.08 µM
same,inhibition in vivo at 40 mg/kg,[3],76.4%
same,Activity,A549 [4],Active
same,Activity,A549 [5],18.7%
same,inhibition in vivo at 20 mg/kg,[6],59.9%
same,Activity,[7],Non-toxic
same,inhibition,[8],Active
same,Activity,[9],Non-toxic
same,inhibition,[10],Active
same,"viability at 48 h, 20 µM",[11],> 90%
same,IC50,NCI-H1299,7.86 µM
same,viability at 10 µM,A549 [12],26.1%
same,Activity,[13],Non-toxic
same,Activity,A549 [14],Active
same,Activity,[15],Non-toxic
same,viability at 5 µM,A549 [16],68.3%
same,Activity,A549 [17],3.05%
same,Activity,A549 [18],Active
same,viability at 2.5 µM,A549 [19],70.1%
same,Activity,A549 [20],19.6%
same,Activity,A549 [21],2.76%
same,Activity,A549 [22],9.5%
same,Activity,A549 [23],27%
same,Activity,A549 [24],2.63%
same,inhibition,[25],Dose-dependent-effect
same,Activity,A549 [26],8.46%
same,Activity,[27],Non-toxic
same,Activity,[28],Non-toxic
same,inhibition,[29],Active
same,inhibition,[30],Dose-dependent-effect
same,inhibition,[31],inactive
same,Activity,A549 [32],Dose-dependent-effect
same,Activity,[33],Active
same,Activity,A549 [34],inactive
same,Activity,A549 [35],37.8%
same,Activity,A549 [36],Active
same,inhibition,Lewis lung carcinoma,Active
same,Activity,A549 [37],33%
